Assay results taken from patent US20220348595A1, “COMPOUNDS AND METHODS FOR THE TARGETED DEGRADATION OF ESTROGEN RECEPTORS” (Endotarget Inc., priority 2021, published 2022).

Legend:
Assay type in all cases: cell-based
[1] = target: T1, ER (Homo sapiens, UniProt P03372); assay: ER antagonism (T47D ERE luciferase), T47d-kb-Luc cells; settings: read-out: IC50 (ER antagonistm)
T1 construct: endogenous in cells; host or cells: T47d-kb-Luc (T47D stably transfected with a luciferase reporter gene only)
T1 sequence (P03372 1-595): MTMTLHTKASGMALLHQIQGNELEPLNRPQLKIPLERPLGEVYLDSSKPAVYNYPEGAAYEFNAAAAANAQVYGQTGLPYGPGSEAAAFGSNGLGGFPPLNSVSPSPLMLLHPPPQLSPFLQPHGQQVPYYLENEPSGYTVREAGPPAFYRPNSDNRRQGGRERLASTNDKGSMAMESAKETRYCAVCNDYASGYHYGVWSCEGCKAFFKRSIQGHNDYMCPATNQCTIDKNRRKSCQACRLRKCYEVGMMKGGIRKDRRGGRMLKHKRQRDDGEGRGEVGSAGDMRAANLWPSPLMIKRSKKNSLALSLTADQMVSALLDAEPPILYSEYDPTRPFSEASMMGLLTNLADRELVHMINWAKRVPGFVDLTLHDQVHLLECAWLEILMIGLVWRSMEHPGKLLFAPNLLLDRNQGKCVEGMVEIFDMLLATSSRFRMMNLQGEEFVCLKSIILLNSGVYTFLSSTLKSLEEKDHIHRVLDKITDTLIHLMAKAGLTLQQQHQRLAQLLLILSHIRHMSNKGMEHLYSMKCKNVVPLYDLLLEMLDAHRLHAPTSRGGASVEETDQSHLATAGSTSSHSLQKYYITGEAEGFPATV
Procedure, shortened: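 Five sample concentrations, each in quadruplicate and repeated in at least three experiments, were tested for blocking of estradiol activity. Values were expressed relative to the estradiol control. The cell system was the T47d-kb-Luc stable breast cancer line.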

[2] = test system: MCF-7 breast cancer cells; assay: MCF-7 proliferation / cell viability assay; settings: Homo sapiens, MCF7; MCF-7 proliferation with 0.1 nM 17-beta estradiol; read-out: IC50 (anti-proliferation)
Procedure, shortened: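 Survival ratio, with vehicle (DMSO) as 100%, was derived from Coulter-counted viable cell numbers. Cells were grown in 5% FBS DMEM and dosed for 5 days across six concentrations between 10^−10 M and 10^−5 M.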

[3] = target: T2, ERα (Homo sapiens, UniProt P03372); assay: ER degradation in MCF-7 cells (Western blot); settings: for DC50: ER degradation, 24 hours; for Dmax: MCF7, Maximal ER degradation, read-out: Dmax
T2 construct: endogenous in cells; host or cells: MCF-7
T2 sequence (P03372 1-595): T1 sequence (P03372 1-595)
Procedure, shortened: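 ERα levels assessed by Western blot (50 μg lysate protein, infrared scanner) after 24-hour exposure of MCF-7 cells to varied compound concentrations. Values reported as DC50, the concentration halving ER expression, and Dmax, the maximal ER reduction achieved across tested concentrations.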

SMILES	IC50 [1]	IC50 [2]	DC50 [3]	Dmax [3]
CC/C(=C(/c1ccc(B(O)O)cc1)c1ccc(N2CCC(CCCN3CCN(c4ccc5c(c4)CN(C4CCC(=O)NC4=O)C5=O)CC3)CC2)cc1)c1ccccc1 (stereo not drawn) [Compound 54]	< 10 nM	10 to 50 nM	< 10 nM	> 90%
CC/C(=C(\c1ccc(B(O)O)cc1)c1ccc(N2CCC(CN3CCN(c4ccc5c(c4)C(=O)N(C4CCC(=O)NC4=O)C5)CC3)CC2)cc1)c1ccccc1 (stereo not drawn) [Compound 3, (Z)-(4-(1-(4-(4-((4-(2-(2,6-dioxopiperidin-3-yl)-3-oxoisoindolin-5-yl)piperazin-1-yl)methyl)piperidin-1-yl)phenyl)-2-phenylbut-1-en-1-yl)phenyl)boronic acid]	< 10 nM	< 10 nM	> 50 nM	> 75%
CC/C(=C(\c1ccc(OCCN2CCN(CC3CCN(c4ccc5c(c4)CN([C@@H]4CCC(=O)NC4=O)C5=O)CC3)CC2)cc1)c1ccc(B(O)O)cc1)c1ccccc1 [Compound 72]	< 10 nM	< 10 nM	< 10 nM	> 90%
CC/C(=C(\c1ccc(B(O)O)cc1)c1ccc(N2CCN(CCC3CCN(c4ccc5c(c4)CN(C4CCC(=O)NC4=O)C5=O)CC3)CC2)cc1)c1ccccc1 (stereo not drawn) [Compound 67, (Z)-(4-(1-(4-(4-(2-(1-(2-(2,6-dioxopiperidin-3-yl)-1-oxoisoindolin-5-yl)piperidin-4-yl)ethyl)piperazin-1-yl)phenyl)-2-phenylbut-1-en-1-yl)phenyl)boronic acid]	< 10 nM	< 10 nM	< 10 nM	> 90%
CC/C(=C(\c1ccc(OCCN2CCN(C(=O)N3CCN(c4ccc5c(c4)CN([C@@H]4CCC(=O)NC4=O)C5=O)CC3)CC2)cc1)c1ccc(B(O)O)cc1)c1ccccc1 [Compound 88]	< 10 nM	< 10 nM	< 10 nM	> 90%
CC/C(=C(/c1ccc(B(O)O)cc1)c1ccc(N2CCN(C(=O)N3CCC(CN4CCN(c5ccc6c(c5)CN(C5CCC(=O)NC5=O)C6=O)CC4)CC3)CC2)cc1)c1ccccc1 (stereo not drawn) [Compound 116, (E)-(4-(1-(4-(4-(4-((4-(2-(2,6-dioxopiperidin-3-yl)-1-oxoisoindolin-5-yl)piperazin-1-yl)methyl)piperidine-1-carbonyl)piperazin-1-yl)phenyl)-2-phenylbut-1-en-1-yl)phenyl)boronic acid]	< 10 nM	< 10 nM	< 10 nM	> 90%
CC/C(=C(\c1ccc(B(O)O)cc1)c1ccc(C2CCN(CCCN3CCN(c4ccc5c(c4)C(=O)N(C4CCC(=O)NC4=O)C5=O)CC3)CC2)cc1)c1ccccc1 (stereo not drawn) [Compound 47]	10 to 50 nM	10 to 50 nM	< 10 nM	> 90%

Now from value to compound:

IC50 [1]	IC50 [2]	DC50 [3]	Dmax [3]	SMILES
< 10 nM	< 10 nM	< 10 nM	> 90%	CC/C(=C(\c1ccc(O)cc1)c1ccc(OCCN2CCN(C(=O)N3CCN(c4ccc5c(c4)CN([C@H]4CCC(=O)NC4=O)C5=O)CC3)CC2)cc1)c1ccccc1 [Compound 78, (S,Z)-3-(5-(4-(4-(2-(4-(1-(4-hydroxyphenyl)-2-phenylbut-1-en-1-yl)phenoxy)ethyl)piperazine-1-carbonyl)piperazin-1-yl)-1-oxoisoindolin-2-yl)piperidine-2,6-dione]
< 10 nM	10 to 50 nM	10 to 50 nM	> 90%	CC/C(=C(/c1ccc(B(O)O)cc1)c1ccc(N2CCN(C(=O)N3CCC(N4CCN(c5ccc6c(c5)CN(C5CCC(=O)NC5=O)C6=O)CC4)CC3)CC2)cc1)c1ccccc1 (stereo not drawn) [Compound 112, (E)-(4-(1-(4-(4-(4-(4-(2-(2,6-dioxopiperidin-3-yl)-1-oxoisoindolin-5-yl)piperazin-1-yl)piperidine-1-carbonyl)piperazin-1-yl)phenyl)-2-phenylbut-1-en-1-yl)phenyl)boronic acid]
10 to 50 nM	10 to 50 nM	< 10 nM	> 90%	CC/C(=C(\c1ccc(OCCN2CCC(C3CCN(c4ccc5c(c4)C(=O)N(C4CCC(=O)NC4=O)C5=O)CC3)CC2)cc1)c1ccc(B(O)O)cc1)c1ccccc1 (stereo not drawn) [Compound 34, (E)-(4-(1-(4-(2-(1′-(2-(2,6-dioxopiperidin-3-yl)-1,3-dioxoisoindolin-5-yl)-[4,4′-bipiperidin]-1-yl)ethoxy)phenyl)-2-phenylbut-1-en-1-yl)phenyl)boronic acid]
< 10 nM	< 10 nM	< 10 nM	> 90%	CC/C(=C(/c1ccc(OCCN2CCN(C(=O)N3CCN(c4ccc5c(c4)CN([C@@H]4CCC(=O)NC4=O)C5=O)CC3)CC2)cc1)c1ccc(B(O)O)cc1)c1ccccc1 [Compound 85, (R,Z)-(4-(1-(4-(2-(4-(4-(2-(2,6-dioxopiperidin-3-yl)-1-oxoisoindolin-5-yl)piperazine-1-carbonyl)piperazin-1-yl)ethoxy)phenyl)-2-phenylbut-1-en-1-yl)phenyl)boronic acid]
< 10 nM	< 10 nM	< 10 nM	> 90%	CC/C(=C(/c1ccc(OCCN2CCN(C(=O)N3CCC(CN4CCN(c5ccc6c(c5)CN(C5CCC(=O)NC5=O)C6=O)CC4)CC3)CC2)cc1)c1ccc(B(O)O)cc1)c1ccccc1 (stereo not drawn) [Compound 91, (Z)-(4-(1-(4-(2-(4-(4-((4-(2-(2,6-dioxopiperidin-3-yl)-1-oxoisoindolin-5-yl)piperazin-1-yl)methyl)piperidine-1-carbonyl)piperazin-1-yl)ethoxy)phenyl)-2-phenylbut-1-en-1-yl)phenyl)boronic acid]
10 to 50 nM	10 to 50 nM	10 to 50 nM	> 75%	CC/C(=C(/c1ccc(OCCN2CCN(CCCNc3ccc4c(c3)C(=O)N(C3CCC(=O)NC3=O)C4=O)CC2)cc1)c1ccc(B(O)O)cc1)c1ccccc1 (stereo not drawn) [Compound 15, (Z)-(4-(1-(4-(2-(4-(3-((2-(2,6-dioxopiperidin-3-yl)-1,3-dioxoisoindolin-5-yl)amino)propyl)piperazin-1-yl)ethoxy)phenyl)-2-phenylbut-1-en-1-yl)phenyl)boronic acid]
< 10 nM	< 10 nM	< 10 nM	> 90%	CC/C(=C(\c1ccc(OCCN2CCN(C(=O)N3CCC(CN4CCN(c5ccc6c(c5)CN(C5CCC(=O)NC5=O)C6=O)CC4)CC3)CC2)cc1)c1ccc(B(O)O)cc1)c1ccccc1 (stereo not drawn) [Compound 92, (E)-(4-(1-(4-(2-(4-(4-((4-(2-(2,6-dioxopiperidin-3-yl)-1-oxoisoindolin-5-yl)piperazin-1-yl)methyl)piperidine-1-carbonyl)piperazin-1-yl)ethoxy)phenyl)-2-phenylbut-1-en-1-yl)phenyl)boronic acid]
< 10 nM	< 10 nM	< 10 nM	> 90%	CC/C(=C(\c1ccc(OCCN2CCN(CC3CCN(c4ccc5c(c4)CN([C@H]4CCC(=O)NC4=O)C5=O)CC3)CC2)cc1)c1ccc(B(O)O)cc1)c1ccccc1 [Compound 71]
10 to 50 nM	10 to 50 nM	< 10 nM	> 90%	CC/C(=C(/c1ccc(OCCN2CCN(CCN3CCN(c4ccc5c(c4)C(=O)N(C4CCC(=O)NC4=O)C5=O)CC3)CC2)cc1)c1ccc(B(O)O)cc1)c1ccccc1 (stereo not drawn) [Compound 23, (Z)-(4-(1-(4-(2-(4-(2-(4-(2-(2,6-dioxopiperidin-3-yl)-1,3-dioxoisoindolin-5-yl)piperazin-1-yl)ethyl)piperazin-1-yl)ethoxy)phenyl)-2-phenylbut-1-en-1-yl)phenyl)boronic acid]
10 to 50 nM	10 to 50 nM	10 to 50 nM	> 90%	CC/C(=C(\c1ccc(B(O)O)cc1)c1ccc(N2CCN(CCN3CCN(c4ccc5c(c4)C(=O)N(C4CCC(=O)NC4=O)C5=O)CC3)CC2)cc1)c1ccccc1 (stereo not drawn) [Compound 59, (Z)-(4-(1-(4-(4-(2-(4-(2-(2,6-dioxopiperidin-3-yl)-1,3-dioxoisoindolin-5-yl)piperazin-1-yl)ethyl)piperazin-1-yl)phenyl)-2-phenylbut-1-en-1-yl)phenyl)boronic acid]
< 10 nM	10 to 50 nM	< 10 nM	> 90%	CC/C(=C(\c1ccc(B(O)O)cc1)c1ccc(N2CCC(CCCN3CCN(c4ccc5c(c4)CN(C4CCC(=O)NC4=O)C5=O)CC3)CC2)cc1)c1ccccc1 (stereo not drawn) [Compound 53, (Z)-(4-(1-(4-(4-(3-(4-(2-(2,6-dioxopiperidin-3-yl)-1-oxoisoindolin-5-yl)piperazin-1-yl)propyl)piperidin-1-yl)phenyl)-2-phenylbut-1-en-1-yl)phenyl)boronic acid]
